# Measurements as given in patent US9327264B2, “Containerless synthesis of amorphous and nanophase organic materials” (UCHICAGO ARGONNE, LLC, priority 2011, dated 2016).
# Like-named read-outs stand apart in the source and are kept apart here.
# Experiments:
# Assay type in all cases: physicochemical
# [1] = Shelf life of substantially pure amorphized materials stored at 4° C. (x-ray diffraction)
# Excerpt: The inventors have discovered that acoustic levitation produces amorphous forms of a variety of organic compounds having different glass forming abilities. […] It is also noted that the term “vitreous”, “vitrify”, “vitrification”, “glass” and “glassy” are variations of amorphous for the purposes of this specification and may be used interchangeably. The x-ray diffraction patterns were obtained using very high flux, high energy x-rays that are capable of detecting even minute (<1%) traces of crystalline materials. A configuration to enable x-ray beam analysis is depicted in FIG. 8 and discussed infra.
# Several amorphized samples were quenched by trapping them in a small volume of liquid quenchent (for example liquid nitrogen, which is maintained at about −196° C.). The quenched samples were stored at temperatures ranging from about −20° C. to 25° C.
# Shelf life is therefore extended by cooling them. […] For bulk storage of amorphized materials, samples are stored at temperatures below freezing (0° C.) if the samples are to be kept more than 150 days. However, for short term storage (e.g., less than 150 days), stability is achieved at storage temperatures up to about 20° C.
# Myriad types of materials are candidates for processing using the invented weightless process. Suitable genuses of material include, but are not limited to pharmaceuticals, antibiotics, cosmetics, foods such as dairy products, and combinations thereof. Table 1 below depicts the sample stability over time for various amorphous materials produced using the invented method.
# The structure of the starting crystalline materials, the supersaturated samples processed in the levitator, and the in-situ progress of the evaporation experiments were measured using the 115 keV x-ray diffraction beam line 11-ID-C at the Advanced Photon Source, located at Argonne National Laboratory, Argonne, Ill. X-rays with an incident wavelength of 0.10798 Å were used and the scattered x-ray intensity was measured with a flat plate a-Si Perkin Elmer area detector (model XRD 1621). Generally, radiations greater than 40 keV are suitable to provide bulk structure detail of materials about a millimeter or two in size.
# [2] = Glass transition temperature Tg
# Procedure: The quenched samples were stored at temperatures ranging from about −20° C. to 25° C.
# [3] = Retention of amorphous form on temperature exposure and room temperature storage (x-ray diffraction); conditions: for Amorphous state during temperature exposure: exposure to temperatures between about −200° C. and 25° C.; for Time amorphous form could be stored: room temperature, in glass or in contact with polyimide film
# Excerpt: (Suitable film is polyimide film, e.g., Kapton from Dupont.)
# The structure and properties of stable or meta-stable amorphous gels are often quite different from their crystalline counterparts. Therefore at, or just prior to, tP the gels were quenched into a small dish of liquid nitrogen in an attempt to preserve the amorphous forms. The cold solid samples were quickly recovered and re-levitated. In-situ x-ray structure measurements were then made on the cold solids as they warmed back to room temperature.
# Generally, radiations greater than 40 keV are suitable to provide bulk structure detail of materials about a millimeter or two in size.
# [4] = In situ x-ray monitoring of levitated amorphous gel over time; conditions: after more than 14 hours of in situ measurements on the levitated drop, from ethanol solution
# Excerpt: By following the position of the principal peak in the x-ray diffraction patterns for all the supersaturated solutions, the amorphization process was investigated as a function of time. […] The fact there are no sharp (needle like) peaks in the measured spectra indicates the materials are completely amorphous. […] Some of the samples prepared using the invented process maintained their amorphous form for at least three weeks. This imaging method enabled the structural evolution of the material to be monitored in real time. The data were acquired from levitated samples in two minute duration sets.
# [5] = quenched samples stored at about −20° C. to 25° C., as noted in Table 1
SMILES,Tg [2],Amorphous state during temperature exposure [3],Time amorphous form could be stored [3],"Stability of amorphized drug over a period of months [1, 5]",further results
CC(C(=O)O)c1cccc(C(=O)c2ccccc2)c1 (stereo not shown) [Ketoprofen],−3 °C,remain amorphous,at least three,,
Clc1ccccc1C(c1ccccc1)(c1ccccc1)n1ccnc1 [Clotrimazole],30 °C,remain amorphous,at least three,remained substantially stable,
CC(C)Cc1ccc(C(C)C(=O)O)cc1 (stereo not shown) [Ibuprofen],,,at least three,,Changes in structure of levitated amorphous gel after plateau [4]: only minimal changes in structure
CC(C)(C)CC(C)(C)c1ccc(O)c(Cc2ccc(Cl)cc2Cl)c1 [Clofoctol],,remain amorphous,at least three,,
Clc1ccc(COC(Cn2ccnc2)c2ccc(Cl)cc2Cl)c(Cl)c1 (stereo not shown) [Miconazole Nitrate],1 °C,,,remained substantially stable,

# Further lines, with some results ahead:
Tg [2],Amorphous state during temperature exposure [3],Time amorphous form could be stored [3],"Stability of amorphized drug over a period of months [1, 5]",SMILES,further results
61 °C,,,,NC(=O)N1c2ccccc2C=Cc2ccccc21 [Carbamazepine],"Shelf life: amorphous state at time 1 month ([1]; stored at 4° C., 1 month): A/P; Shelf life: amorphous state at time 2 months ([1]; stored at 4° C., 2 months): A/P; Shelf life: amorphous state at time 3 months ([1]; stored at 4° C., 3 months): A/P; Shelf life: amorphous state at time 4 months ([1]; stored at 4° C., 4 months): A/P"
27 °C,,,,CC(C)(Sc1cc(C(C)(C)C)c(O)c(C(C)(C)C)c1)Sc1cc(C(C)(C)C)c(O)c(C(C)(C)C)c1 [Probucol],Stability of amorphized drug over a period of months [1]: remained substantially stable
7 °C,,,remained substantially stable,"C(=C\c1ccccc1)/CN1CCN(C(c2ccccc2)c2ccccc2)CC1 [Cinnazirine, Cinnarizine]",
